Test results from patent publication US20050239061A1, “Identification and use of effectors and allosteric molecules for the alteration of gene expression” (priority 2000, published 2005).
Where two headings read alike, the source gives them in different places.

Assays:
[1] = cited from earlier work
[2] = in vivo; cited from earlier work
HIV RT = target: T1, HIV RT (Human immunodeficiency virus type 1 group M subtype B, UniProt P04585); settings: cited from earlier work
T1 construct: Atevirdine/nonnucleoside reverse

[3] = cited from earlier work; for Biodistribution: in vivo
TA-50 ribozyme = experiment: Theophylline-dependent self-cleavage of ribozyme TA-50; format: biochemical; settings: FIG. 9

| Molecule | Bioavailability ([1]; oral) | Toxicity/Drug Interactions [2] | Biodistribution [3] | further results |
| --- | --- | --- | --- | --- |
| Cl.O=C(O)c1cn(C2CC2)c2c(Cl)c(N3C[C@@H]4CCCN[C@@H]4C3)c(F)cc2c1=O [Bay-y-3118] | Orally absorbed | No abnormal findings in humans |  | Half life ([1]; oral): 11.4 h; Tmax ([1]; oral): 1.3 h |
| COc1ccc2c(c1)N(C(=O)OC(C)C)[C@@H](CSC)C(=S)N2 [Talviraline] |  |  | Wide | Other Pharmacology (HIV RT): Viral target, no other known activity |
| CSc1nc2cc(Cl)c(Oc3cccc(Cl)c3Cl)cc2[nH]1 [Triclabendazole] | Oral | Low/none in humans | Liver/metabolism important |  |
| CN1CCN(c2cc3c(cc2F)c(=O)c(C(=O)O)cn3-c2ccc(F)cn2)CC1.Cl [Fandofloxacin] | Orally absorbed | Well tolerated, v. low phototoxicity | Good organ distribution including muscle |  |
| Cn1c(=O)c2[nH]cnc2n(C)c1=O [theophylline] |  | acceptable |  | theophylline concentration giving highest cleavage activity of TA-50 ribozyme (TA-50 ribozyme): 10 to 50 µM |
| Cc1oc(-c2ccccc2)nc1CCOc1ccc(C[C@H](Nc2ccccc2C(=O)c2ccccc2)C(=O)O)cc1 [GW-2570] |  |  | Muscle and adipose | Bioavailability ([1]; in vivo, po): Oral |
| CCNc1cccnc1N1CCN(C(=O)c2cc3cc(OC)ccc3[nH]2)CC1 [Atevirdine] | well absorbed orally |  | Widely distributed, crosses blood-brain | Other Pharmacology (HIV RT): Viral target, no other known activity; time to peak serum ([1]; oral): 30 to 60 min; maximum concentration of drug in serum ([3]; oral delivery): delivery): 7.3 uM |
| O=C1NC(=O)C(Cc2ccc3cc(OCc4ccccc4F)ccc3c2)S1 (stereo not shown) [MCC-555] |  | Liver toxicity (controversial) | Muscle and adipose | Bioavailability ([1]; in vivo, po): Oral |
| TA-50: theophylline-responsive self-cleaving hammerhead ribozyme sequence selected after seven cycles, SEQ ID NO:5 (nucleic acid, listed as RNA, chemistry not given here) GGGAGAGGGAUCCAGCUGACGAGUACUGAAUACCAGCCGAAAGGCCCUUGGCAGGUUUGGUGAAACGCCUUCGGCGUCCUGGAUUAGAACUUC |  |  |  | self-cleaving ability (TA-50 ribozyme; presence of theophylline): strongly dependent on the presence of theophylline |
